Tested on: spontaneously hypertensive rats (SHR)
Assay: Test for inhibiting hypertension in rats (systolic BP at the tail pulse), SHR
Assay type: in vivo
Settings: for changes in blood pressure (inhibition of hypertension): male SHR, oral once a day for 8 weeks, quercetin 0.3-2.7 mg/day/kg and/or arginine 0.03-0.15 mg/day/kg, FIG. 2
Procedure: Quercetin was extracted by adding 100 g of washed onion skins to 10 liters of water heated to 80° C., and impurities were removed to obtain quercetin-containing solution. The amount of quercetin contained in the quercetin-containing solution was 0.1 mg/ml. The quercetin-containing solution was appropriately concentrated with an evaporator.
11 week old male spontaneously hypertensive rats (SHR) were divided into A to I groups (9 groups consisting of 5 rats per group) and 11 week old male normotensive Wistar Kyoto (WKY) rats were divided into J to L groups (3 groups consisting of 5 rats per group) so that averages of weight and blood pressure (BP) of the respective groups were nearly equal. They were pre-bred in each breeding cage at 22.0±1.0° C. temperature, 60±10% of humidity and 12 hour light-dark cycles for a week while taking feeds and water ad libitum.
After the pre-breeding period, they were bred with the same conditions for 8 weeks. The quercetin-containing solution obtained in the above-mentioned preparation method and commercially-available arginine powder (produced by Ajinomoto Co., Inc.) were blended together so that amounts of quercetin and arginine would be the respective amounts in Table 7, below. Each mixture was orally administered to the rats in each group once a day. The rats took feed and water ad libitum during the test.
The blood pressure (BP) of rats was measured once a week. After each rat was warmed and climatized itself in a warmer at 38° C. for a few minutes, a systolic BP at the tail pulse was measured with an automatic sphygmomanometer (BP-98A; Softron Co., Ltd.) In each rat, the BP was measured for three times per one measurement and an average of the three measured values was recorded.

SMILES | changes in blood pressure (inhibition of hypertension) | inhibition of hypertension with purified quercetin instead of quercetin-containing solution (same test, purified quercetin used instead of the quercetin-containing solution)
N=C(N)NCCC[C@H](N)C(=O)O [arginine] | hypertensions were inhibited | 
O=c1c(O)c(-c2ccc(O)c(O)c2)oc2cc(O)cc(O)c12 [quercetin] | hypertensions were inhibited | 
O=c1c(O)c(-c2ccc(O)c(O)c2)oc2cc(O)cc(O)c12 [purified quercetin, quercetin] |  | a similar result can be achieved

— patent US20090197942A1, “Method For Producing Polyphenol-Rich Composition” (KYUSAI CO., LTD., priority 2006, published 2009)
